Target: T1, CYP3A4 (Homo sapiens, UniProt P08684)
T1 construct: pre-incubated with human liver microsomes and NADPH; from tissue; host or cells: human liver microsomes
Experiment: Cytochrome P450 inhibition assay (midazolam hydroxylation)
Format: in vitro ADME
Details: human, human liver microsomes, probe midazolam (hydroxylation to 1′-hydroxymidazolam), 10 μM test compound, midazolam at approximately its Km
Experimental: Compounds were tested for the potential to induce drug-drug interactions by inhibition of the cytochrome P450 3A4 isoform. The assay evaluated the metabolism of a specific marker substrate (CYP3A4, midazolam hydroxylation to 1′-hydroxymidazolam) in the presence or absence of 10 μM test compound. The concentration of the marker substrate was approximately its Km (Dixit et al., Biopharm. Drug Dispos. 2007, 28(5), 257-262). A specific inhibitor for the isoform was included in each run to validate the system. An appropriate positive control inhibitor was used. Mechanism-based inhibition was investigated where warranted using a classical method. To evaluate time-dependent inhibition, parallel samples may have been included where […] was pre-incubated with human liver microsomes and NADPH for 30 min prior to the addition of the P450 substrate. The percent inhibition of the pre-incubated and non-pre-incubated samples were compared as a preliminary evaluation of time-dependent inhibition.

T1 sequence (P08684 whole entry): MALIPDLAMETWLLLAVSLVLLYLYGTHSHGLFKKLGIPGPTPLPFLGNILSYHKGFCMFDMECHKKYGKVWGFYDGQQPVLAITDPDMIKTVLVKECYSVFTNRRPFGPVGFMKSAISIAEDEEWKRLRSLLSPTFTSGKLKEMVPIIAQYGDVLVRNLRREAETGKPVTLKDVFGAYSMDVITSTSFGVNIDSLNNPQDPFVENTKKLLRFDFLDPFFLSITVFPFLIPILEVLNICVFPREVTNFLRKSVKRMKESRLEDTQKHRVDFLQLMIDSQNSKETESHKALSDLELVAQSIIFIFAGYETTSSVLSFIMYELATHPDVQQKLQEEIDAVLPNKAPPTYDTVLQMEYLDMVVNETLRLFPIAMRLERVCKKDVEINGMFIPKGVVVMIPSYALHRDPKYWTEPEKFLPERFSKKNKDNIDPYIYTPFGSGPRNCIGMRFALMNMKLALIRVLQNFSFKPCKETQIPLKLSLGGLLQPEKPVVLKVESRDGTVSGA

SMILES	inhibition at 10 µM [%]
Cc1ccc(-n2ncc(C)n2)c(C(=O)N2CCC[C@@H](C)[C@H]2CNc2nc3cc(F)ccc3o2)c1 [Example A141, ((2S,3R)-2-(((5-Fluorobenzo[d]oxazol-2-yl)amino)methyl)-3-methylpiperidin-1-yl)(5-methyl-2-(4-methyl-2H-1,2,3-triazol-2-yl)phenyl)methanone]	72
Cc1ccc(-n2nccn2)c(C(=O)N2CCC[C@@H](C)[C@H]2CNc2ncccc2C#N)c1 [Example A90, 2-((((2S,3R)-3-Methyl-1-(5-methyl-2-(2H-1,2,3-triazol-2-yl)benzoyl)piperidin-2-yl)methyl)amino)nicotinonitrile]	33
COc1cccnc1NC[C@@H]1[C@H](C)CCCN1C(=O)c1cc(C)ccc1-c1cnn(C)c1 [Example A101, ((2S,3R)-2-(((3-Methoxypyridin-2-yl)amino)methyl)-3-methylpiperidin-1-yl)(5-methyl-2-(1-methyl-1H-pyrazol-4-yl)phenyl)methanone]	83
Cc1cccc(C(=O)N2CCC[C@@H](C)[C@H]2CNc2ccc(C(F)(F)F)cn2)c1-n1nccn1 [Example A266, ((2S,3R)-3-Methyl-2-(((5-(trifluoromethyl)pyridin-2-yl)amino)methyl)piperidin-1-yl)(3-methyl-2-(2H-1,2,3-triazol-2-yl)phenyl)methanone]	76
Cc1ccc(-c2nccs2)c(C(=O)N2CCC[C@@H](C)[C@H]2CNc2nc3cc(Cl)ccc3o2)c1 [Example A30, ((2S,3R)-2-(((5-Chlorobenzo[d]oxazol-2-yl)amino)methyl)-3-methylpiperidin-1-yl)(5-methyl-2-(thiazol-2-yl)phenyl)methanone]	97
Cc1ccc(-c2cnn(C)c2)c(C(=O)N2CCC[C@@H](C)[C@H]2CNc2ncc(Cl)cc2F)c1 [Example A97, ((2S,3R)-2-(((5-Chloro-3-fluoropyridin-2-yl)amino)methyl)-3-methylpiperidin-1-yl)(5-methyl-2-(1-methyl-1H-pyrazol-4-yl)phenyl)methanone]	98
Cc1ccc(-c2ccccn2)c(C(=O)N2CCC[C@@H](C)[C@H]2CNc2nnc(C(F)(F)F)s2)c1 [Example A151, ((2S,3R)-3-Methyl-2-(((5-(trifluoromethyl)-1,3,4-thiadiazol-2-yl)amino)methyl)piperidin-1-yl)(5-methyl-2-(pyridin-2-yl)phenyl)methanone]	86
Cc1ccc(-c2ccc(C)nc2)c(C(=O)N2CCC[C@@H](C)[C@H]2CNc2nc3cc(Cl)ccc3o2)c1 [Example A38, ((2S,3R)-2-(((5-Chlorobenzo[d]oxazol-2-yl)amino)methyl)-3-methylpiperidin-1-yl)(5-methyl-2-(6-methylpyridin-3-yl)phenyl)methanone]	96
Cc1ccc(-c2ncccn2)c(C(=O)N2CCC(F)(F)C[C@H]2CNc2ncc(C(F)(F)F)cn2)c1 [Example A312, (S)-(4,4-Difluoro-2-(((5-(trifluoromethyl)pyrimidin-2-yl)amino)methyl)piperidin-1-yl)(5-methyl-2-(pyrimidin-2-yl)phenyl)methanone]	40
Cc1nc(C(=O)N2CCCC(C)C2CNc2ncc(C(F)(F)F)cn2)c(-c2ccc(F)cc2)s1 (racemic) [Example A311, (+/−)-cis-(5-(4-Fluorophenyl)-2-methylthiazol-4-yl)(3-methyl-2-(((5-(trifluoromethyl)pyrimidin-2-yl)amino)methyl)piperidin-1-yl)methanone]	57
Cc1ccc(-n2nccn2)c(C(=O)N2CCC[C@@H](C)[C@H]2CNc2ncc3ccc(C)cc3n2)c1 [Example A215, ((2S,3R)-3-Methyl-2-(((7-methylquinazolin-2-yl)amino)methyl)piperidin-1-yl)(5-methyl-2-(2H-1,2,3-triazol-2-yl)phenyl)methanone]	67
Cc1ccc(-n2nccn2)c(C(=O)N2CCC[C@@H](C)[C@H]2CNc2nnc(C(F)(F)F)s2)n1 [Example A191, ((2S,3R)-3-Methyl-2-(((5-(trifluoromethyl)-1,3,4-thiadiazol-2-yl)amino)methyl)piperidin-1-yl)(6-methyl-3-(2H-1,2,3-triazol-2-yl)pyridin-2-yl)methanone]	44
Cc1ccc(-c2cnn(C)c2)c(C(=O)N2CCC[C@@H](C)[C@H]2CNc2ncc(C(F)(F)F)cc2F)c1 [Example A83, ((2S,3R)-2-(((3-Fluoro-5-(trifluoromethyl)pyridin-2-yl)amino)methyl)-3-methylpiperidin-1-yl)(5-methyl-2-(1-methyl-1H-pyrazol-4-yl)phenyl)methanone]	97
C[C@@H]1CCCN(C(=O)c2cc(F)ccc2-c2ncccn2)[C@@H]1CNc1ncc(Cl)cn1 [Example A226, ((2S,3R)-2-(((5-Chloropyrimidin-2-yl)amino)methyl)-3-methylpiperidin-1-yl)(5-fluoro-2-(pyrimidin-2-yl)phenyl) methanone]	60
C[C@@H]1CCCN(C(=O)c2cc(F)c(F)cc2-n2nccn2)[C@@H]1CNc1ccc(Cl)cn1 [Example A246, ((2S,3R)-2-(((5-Chloropyridin-2-yl)amino)methyl)-3-methylpiperidin-1-yl)(4,5-difluoro-2-(2H-1,2,3-triazol-2-yl)phenyl)methanone]	69
Cc1ccc(-c2ccccn2)c(C(=O)N2CCC[C@@H](C)[C@H]2CNc2nc3cc(Cl)ccc3o2)c1 [Example A32, ((2S,3R)-2-(((5-Chlorobenzo[d]oxazol-2-yl)amino)methyl)-3-methylpiperidin-1-yl)(5-methyl-2-(pyridin-2-yl)phenyl)methanone]	92
Cc1ccc(-n2nccn2)c(C(=O)N2CCC[C@@H](C)[C@H]2CNc2ncc3ccccc3n2)c1 [Example A216, ((2S,3R)-3-Methyl-2-((quinazolin-2-ylamino)methyl)piperidin-1-yl)(5-methyl-2-(2H-1,2,3-triazol-2-yl)phenyl)methanone]	67
Cc1ccc(-n2nccn2)c(C(=O)N2CCC(F)(F)C[C@H]2CNc2ncc(C(F)(F)F)cn2)c1 [Example A211, (S)-(4,4-Difluoro-2-(((5-(trifluoromethyl)pyrimidin-2-yl)amino)methyl)piperidin-1-yl)(5-methyl-2-(2H-1,2,3-triazol-2-yl)phenyl)methanone]	60
Cc1ccc(-c2cnn(C)c2)c(C(=O)N2CCC[C@@H](C)[C@H]2CNc2ncc(F)cc2F)c1 [Example A96, ((2S,3R)-2-(((3,5-Difluoropyridin-2-yl)amino)methyl)-3-methylpiperidin-1-yl)(5-methyl-2-(1-methyl-1H-pyrazol-4-yl)phenyl)methanone]	92
Cc1ccc(-n2nccn2)c(C(=O)N2CCC[C@@H](C)[C@H]2CNc2ncc(C#N)cc2F)n1 [Example A193, 5-Fluoro-6-((((2S,3R)-3-methyl-1-(6-methyl-3-(2H-1,2,3-triazol-2-yl)picolinoyl)piperidin-2-yl)methyl)amino)nicotinonitrile]	45
Cc1ccc(-n2nccn2)c(C(=O)N2CCC[C@@H](C)[C@H]2CNc2cccc(C#N)n2)c1 [Example A81, 6-((((2S,3R)-3-Methyl-1-(5-methyl-2-(2H-1,2,3-triazol-2-yl)benzoyl)piperidin-2-yl)methyl)amino)picolinonitrile]	67
Cc1cccc(C(=O)N2CCC[C@@H](C)[C@H]2CNc2ncc(C(F)(F)F)cn2)c1-c1ncccn1 [Example A299, ((2S,3R)-3-Methyl-2-(((5-(trifluoromethyl)pyrimidin-2-yl)amino)methyl)piperidin-1-yl)(3-methyl-2-(pyrimidin-2-yl)phenyl)methanone]	51
Cc1ccc(-c2cnn(C)c2)c(C(=O)N2CCC[C@@H](C)[C@H]2CNc2cccc(C#N)n2)c1 [Example A86, 6-((((2S,3R)-3-Methyl-1-(5-methyl-2-(1-methyl-1H-pyrazol-4-yl)benzoyl)piperidin-2-yl)methyl)amino)picolinonitrile]	95
Cc1ccc(-c2cccc(C)n2)c(C(=O)N2CCC[C@@H](C)[C@H]2CNc2ccc(C(F)(F)F)cn2)c1 [Example A104, ((2S,3R)-3-Methyl-2-(((5-(trifluoromethyl)pyridin-2-yl)amino)methyl)piperidin-1-yl)(5-methyl-2-(6-methylpyridin-2-yl)phenyl)methanone]	91
Cc1ccc(-n2nccn2)c(C(=O)N2CCC[C@@H](C)[C@H]2CNc2ncc(Cl)cn2)c1 [Example A147, ((2S,3R)-2-(((5-Chloropyrimidin-2-yl)amino)methyl)-3-methylpiperidin-1-yl)(5-methyl-2-(2H-1,2,3-triazol-2-yl)phenyl)methanone]	66
C[C@@H]1CCCN(C(=O)c2c(F)cccc2-c2ncccn2)[C@@H]1CNc1ncc(C(F)(F)F)cn1 [Example A240, (2-Fluoro-6-(pyrimidin-2-yl)phenyl)((2S,3R)-3-methyl-2-(((5-(trifluoromethyl)pyrimidin-2-yl)amino)methyl)piperidin-1-yl)methanone]	42
Cc1ccc(-c2ccnc(C)n2)c(C(=O)N2CCC[C@@H](C)[C@H]2CNc2nc3cc(Cl)ccc3o2)c1 [Example A27, ((2S,3R)-2-(((5-Chlorobenzo[d]oxazol-2-yl)amino)methyl)-3-methylpiperidin-1-yl)(5-methyl-2-(2-methylpyrimidin-4-yl)phenyl)methanone]	95

From patent US9440982B2 (Eolas Therapeutics, Inc., priority 2012, dated 2016)
